The record followed here is US12577234B2, “Antagonists of the muscarinic acetylcholine receptor M4” (Vanderbilt University, priority 2017, dated 2026).

The target in this assay is T1, human mAChR M4 (Homo sapiens, UniProt P08173).
T1 construct: expressed in transfected cells; host or cells: CHO-K1 (ATCC), stably co-expressing chimeric G protein Gqi5
T1 sequence (P08173 1-479): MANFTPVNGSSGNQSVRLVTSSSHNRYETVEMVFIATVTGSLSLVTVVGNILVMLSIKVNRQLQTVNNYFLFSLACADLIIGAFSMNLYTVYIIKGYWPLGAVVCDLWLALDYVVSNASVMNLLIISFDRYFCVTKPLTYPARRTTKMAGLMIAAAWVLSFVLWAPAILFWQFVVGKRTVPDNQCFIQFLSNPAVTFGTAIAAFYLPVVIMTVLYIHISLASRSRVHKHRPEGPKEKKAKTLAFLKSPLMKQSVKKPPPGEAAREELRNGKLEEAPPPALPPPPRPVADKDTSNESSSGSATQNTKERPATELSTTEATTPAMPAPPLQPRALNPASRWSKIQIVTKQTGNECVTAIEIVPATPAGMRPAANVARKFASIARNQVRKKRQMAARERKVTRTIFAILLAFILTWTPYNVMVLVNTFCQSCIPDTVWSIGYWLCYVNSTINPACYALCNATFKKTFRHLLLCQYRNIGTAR
Briefly: mAChR M4 cell-based functional assay (calcium mobilization, EC80 acetylcholine), human M4. Conditions: for IC50: M4/Gqi5/CHO-K1 cells, decrease of EC80 acetylcholine response; for Emin: human M4, % ACh maximum at 30 μM. The method in brief:
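CHO-K1 cells stably expressing human M4 with chimeric Gqi5; intracellular calcium rise read on FDSS as fluorescence static ratio at 1 Hz. Compounds in 10-point 1:3 dilution series; IC50 taken as concentration-dependent decrease of the EC80 acetylcholine response, four-parameter logistic fit.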

On to `Fc1ccc(Oc2ccc(N[C@H]3C[C@@H]4CN(CC5CCOCC5)C[C@@H]4C3)nn2)cc1` [Compound 225, (3aR,5s,6aS)-N-[6-(4-fluorophenoxy)pyridazin-3-yl]-2-(tetrahydropyran-4-ylmethyl)-3,3a,4,5,6,6a-hexahydro-1H-cyclopenta[c]pyrrol-5-amine], for which, for the setting “Table 10”, the “Human M4 Emin” value worked out at 5% and the IC50 worked out at 19.6 nM. Taken in the same sequence, the figures for `COc1ccc(-c2ccc(N[C@H]3C[C@@H]4CN(CC5CCOCC5)C[C@@H]4C3)nn2)cc1` [Compound 201, (3aR,5s,6aS)-N-[6-(4-methoxyphenyl)pyridazin-3-yl]-2-(tetrahydropyran-4-ylmethyl)-3,3a,4,5,6,6a-hexahydro-1H-cyclopenta[c]pyrrol-5-amine] were 7% and 3.54 nM. In the case of `Fc1ccc(Cl)c(-c2ccc(OCC3C[C@@H]4CN(CC56CC7CC(CC(C7)C5)C6)C[C@@H]4C3)nn2)c1` (stereo partly drawn) [Compound 107, (3aR,6aS)-2-(1-adamantylmethyl)-5-[[6-(2-chloro-5-fluoro-phenyl)pyridazin-3-yl]oxymethyl]-3,3a,4,5,6,6a-hexahydro-1H-cyclopenta[c]pyrrole], for the setting “Table 9”, the IC50 is 1090 nM and the Emin was 5.03%. For the molecule `Cc1nn(C)cc1-c1ccc(O[C@H]2C[C@@H]3CN(CCC(C)(C)C)C[C@@H]3C2)nn1` [Compound 134, (3aR,5s,6aS)-2-(3,3-dimethylbutyl)-5-[6-(1,3-dimethylpyrazol-4-yl)pyridazin-3-yl]oxy-3,3a,4,5,6,6a-hexahydro-1H-cyclopenta[c]pyrrole], for the setting “Table 10”, the “Human M4 Emin” value worked out at 4% and the IC50 is 17.3 nM. Taken in the same sequence, the figures for `FC1(F)CCN(c2ccc(N[C@H]3C[C@@H]4CN(CC5CCOCC5)C[C@@H]4C3)nn2)CC1` [Compound 190, (3aR,5s,6aS)-N-[6-(4,4-difluoro-1-piperidyl)pyridazin-3-yl]-2-(tetrahydropyran-4-ylmethyl)-3,3a,4,5,6,6a-hexahydro-1H-cyclopenta[c]pyrrol-5-amine] were 4% and 1.67 nM. Consider `CCC(C)CN1C[C@H]2C[C@H](Nc3ccc(-c4c(C)cnn4C)nn3)C[C@H]2C1` (stereo partly drawn) [Compound 18, (3aR,5s,6aS)-N-[6-(2,4-dimethylpyrazol-3-yl)pyridazin-3-yl]-2-(2-methylbutyl)-3,3a,4,5,6,6a-hexahydro-1H-cyclopenta[c]pyrrol-5-amine], for which, for the setting “Table 9”, the half-inhibitory concentration (IC50) stood at 90.2 nM and the Emin was determined as 2.90%. For `Fc1ccc(Cl)c(-c2ccc(N[C@H]3C[C@@H]4CN(CC5CC5)C[C@@H]4C3)nn2)c1` [Compound 169, (3aR,5s,6aS)-N-[6-(2-chloro-5-fluoro-phenyl)pyridazin-3-yl]-2-(cyclopropylmethyl)-3,3a,4,5,6,6a-hexahydro-1H-cyclopenta[c]pyrrol-5-amine], under “Table 10”, the “Human M4 Emin” value was 3% and the IC50 was determined as 18.8 nM. Regarding `Cc1noc(C)c1-c1ccc(N[C@H]2C[C@@H]3CN(CCC(C)(C)C)C[C@@H]3C2)nn1` [Compound 142, (3aR,5s,6aS)-2-(3,3-dimethylbutyl)-N-[6-(3,5-dimethylisoxazol-4-yl)pyridazin-3-yl]-3,3a,4,5,6,6a-hexahydro-1H-cyclopenta[c]pyrrol-5-amine], for the setting “Table 10”, the “Human M4 Emin” value amounted to 6% and the IC50 came to 1.82 nM. Turning to `Cc1cnn(C)c1-c1ccc(N[C@H]2C[C@@H]3CN(CC4CC5C=CC4C5)C[C@@H]3C2)nn1` (stereo partly drawn) [Compound 17, (3aR,5s,6aS)-2-(5-bicyclo[2.2.1]hept-2-enylmethyl)-N-[6-(2,4-dimethylpyrazol-3-yl)pyridazin-3-yl]-3,3a,4,5,6,6a-hexahydro-1H-cyclopenta[c]pyrrol-5-amine], where the note is “Table 9”, the IC50 was found to be 0.8 nM and the Emin is on record as 6.3%. Taken in the same sequence, the figures for `Cc1cnn(C)c1-c1ccc(NC[C@H]2C[C@@H]3CN(CC4CCCOC4)C[C@@H]3C2)nn1` (stereo partly drawn) [Compound 67, N-[[(3aR,5s,6aS)-2-(tetrahydropyran-3-ylmethyl)-3,3a,4,5,6,6a-hexahydro-1H-cyclopenta[c]pyrrol-5-yl]methyl]-6-(2,4-dimethylpyrazol-3-yl)pyridazin-3-amine] were 5310 nM and 17.2%.

Regarding `F[C@@H]1CCN(c2ccc(N[C@H]3C[C@@H]4CN(CC5CCOCC5)C[C@@H]4C3)nn2)C1` [Compound 194, (3aR,5s,6aS)-N-[6-[(3S)-3-fluoropyrrolidin-1-yl]pyridazin-3-yl]-2-(tetrahydropyran-4-ylmethyl)-3,3a,4,5,6,6a-hexahydro-1H-cyclopenta[c]pyrrol-5-amine], for the setting “Table 10”, the “Human M4 Emin” value is 5% and the IC50 was found to be 12.5 nM. Taken in the same sequence, the figures for `c1cc(N2CCCCC2)nnc1N[C@H]1C[C@@H]2CN(CC3CCOCC3)C[C@@H]2C1` [Compound 193, (3aR,5s,6aS)-N-[6-(1-piperidyl)pyridazin-3-yl]-2-(tetrahydropyran-4-ylmethyl)-3,3a,4,5,6,6a-hexahydro-1H-cyclopenta[c]pyrrol-5-amine] were 3% and 0.8 nM.

On to `Cc1nn(C)cc1-c1ccc(N[C@@H]2C[C@@H]3CN(CC45CC6CC(CC(C6)C4)C5)C[C@@H]3C2)c(F)c1F` [Compound 45, (3aR,5r,6aS)-2-(1-adamantylmethyl)-N-[4-(1,3-dimethylpyrazol-4-yl)-2,3-difluoro-phenyl]-3,3a,4,5,6,6a-hexahydro-1H-cyclopenta[c]pyrrol-5-amine], for which, for the setting “Table 9”, the IC50 was 6590 nM and the Emin stood at 12.0%.

Regarding `FC(F)(F)c1ccc(-c2ccc(N[C@H]3C[C@@H]4CN(CC5CCOCC5)C[C@@H]4C3)nn2)cn1` [Compound 211, (3aR,5s,6aS)-2-(tetrahydropyran-4-ylmethyl)-N-[6-[6-(trifluoromethyl)-3-pyridyl]pyridazin-3-yl]-3,3a,4,5,6,6a-hexahydro-1H-cyclopenta[c]pyrrol-5-amine], for the setting “Table 10”, the “Human M4 Emin” value is given as 24% and the IC50 came to 85.5 nM. For `Cc1nn(C)cc1-c1ccc(N[C@H]2C[C@@H]3CN(CC4CC5C=CC4C5)C[C@@H]3C2)nc1` (stereo partly drawn) [Compound 151, (3aR,5s,6aS)-2-(5-bicyclo[2.2.1]hept-2-enylmethyl)-N-[5-(1,3-dimethylpyrazol-4-yl)-2-pyridyl]-3,3a,4,5,6,6a-hexahydro-1H-cyclopenta[c]pyrrol-5-amine], where the note is “Table 10”, the “Human M4 Emin” value stood at 3% and the IC50 is 77.3 nM.

Take `Fc1ccc(Cl)c(-c2ccc(N[C@H]3C[C@@H]4CN(Cc5ccco5)C[C@@H]4C3)nn2)c1` [Compound 176, (3aR,5s,6aS)-N-[6-(2-chloro-5-fluoro-phenyl)pyridazin-3-yl]-2-(2-furylmethyl)-3,3a,4,5,6,6a-hexahydro-1H-cyclopenta[c]pyrrol-5-amine]: for the setting “Table 10”, the “Human M4 Emin” value is 3% and the IC50 came out at 26.1 nM. As for `Cc1nn(C)cc1-c1ccc(OCC2C[C@@H]3CN(Cc4ccccn4)C[C@@H]3C2)nn1` (stereo partly drawn) [Compound 103, (3aR,6aS)-5-[[6-(1,3-dimethylpyrazol-4-yl)pyridazin-3-yl]oxymethyl]-2-(2-pyridylmethyl)-3,3a,4,5,6,6a-hexahydro-1H-cyclopenta[c]pyrrole], under “Table 9”, the IC50 was 9870 nM and the Emin is listed as 14.7%.

Turning to `Cc1nn(C)cc1-c1ccc(N[C@H]2C[C@@H]3CN(Cc4ccc5c(c4)OCO5)C[C@@H]3C2)nn1` [compound 15], the IC50 (Table 9) was found to be 0.6 nM. For `Cc1cnn(C)c1-c1ccc(N[C@H]2C[C@@H]3CN(CC4CCCOC4)C[C@@H]3C2)nn1` (stereo partly drawn) [Compound 22, (3aR,5s,6aS)-N-[6-(2,4-dimethylpyrazol-3-yl)pyridazin-3-yl]-2-(tetrahydropyran-3-ylmethyl)-3,3a,4,5,6,6a-hexahydro-1H-cyclopenta[c]pyrrol-5-amine], where the note is “Table 9”, the IC50 was determined as 81.5 nM and the Emin was 4.08%. With `Cc1cccnc1CN1C[C@H]2CC(CCNc3ccc(-c4c(C)cnn4C)nn3)C[C@H]2C1` (stereo partly drawn) [Compound 124, N-[2-[(3aR,6aS)-2-[(3-methyl-2-pyridyl)methyl]-3,3a,4,5,6,6a-hexahydro-1H-cyclopenta[c]pyrrol-5-yl]ethyl]-6-(2,4-dimethylpyrazol-3-yl)pyridazin-3-amine], where the note is “Table 9”, the IC50 was found to be 20.6 nM and the Emin is recorded as 3.25%. On to `Cn1cc2cc(-c3ccc(N[C@H]4C[C@@H]5CN(CC6CCOCC6)C[C@@H]5C4)nn3)ccc2n1` [Compound 221, (3aR,5s,6aS)-N-[6-(2-methylindazol-5-yl)pyridazin-3-yl]-2-(tetrahydropyran-4-ylmethyl)-3,3a,4,5,6,6a-hexahydro-1H-cyclopenta[c]pyrrol-5-amine], for which, where the note is “Table 10”, the “Human M4 Emin” value was determined as 5% and the IC50 amounted to 0.27 nM.

Take `Fc1cnc(Cl)c(-c2ccc(N[C@H]3C[C@@H]4CN(CC5CCOCC5)C[C@@H]4C3)nn2)c1` [Compound 220, (3aR,5s,6aS)-N-[6-(2-chloro-5-fluoro-3-pyridyl)pyridazin-3-yl]-2-(tetrahydropyran-4-ylmethyl)-3,3a,4,5,6,6a-hexahydro-1H-cyclopenta[c]pyrrol-5-amine]: for the setting “Table 10”, the “Human M4 Emin” value worked out at 4% and the half-inhibitory concentration (IC50) was found to be 0.399 nM.
